Tested on: B16–F10 cells
Assay: RNaseq gene expression profiling;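 as to logFC Ak4: Hybrid compounds tested at 10 µM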;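 as to logFC Cck: Hybrid compounds tested at 10 µM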;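 as to logFC Cited1: Hybrid compounds tested at 10 µM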;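 as to logFC Gpd1: Hybrid compounds tested at 10 µM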;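 as to logFC Mgll: Hybrid compounds tested at 10 µM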;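 as to logFC Nr4a3: Hybrid compounds tested at 10 µM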;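 as to logFC Rnf145: Hybrid compounds tested at 10 µM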;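 as to logFC Rpia: Hybrid compounds tested at 10 µM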;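 as to logFC Sema7a: Hybrid compounds tested at 10 µM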;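 as to logFC Snrpd1: Hybrid compounds tested at 10 µM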;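 as to logFC Spc24: Hybrid compounds tested at 10 µM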;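 as to logFC Tk1: Hybrid compounds tested at 10 µM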;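 as to logFC Tonsl: Hybrid compounds tested at 10 µM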;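 as to logFC Tpi1: Hybrid compounds tested at 10 µM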;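 as to logFC Ugdh: Hybrid compounds tested at 10 µM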
Format: cell-based, mouse
Description: AC-340 superinduced CYP24A1 expression in all cell lines tested, and ZG-126 appeared to be a hyperagonist in SK-MEL-28 cells. […] AC-340 treatment produced 3 times more differentially expressed genes (DEGs) than AM-193, with ZG-126 producing an intermediate number (Figure A). […] The varying effects of each treatment on the numbers of regulated genes and the fold changes observed are reflected in plots of log-fold changes and volcano plots (Figure S3B).
A quality control was performed before sequencing in paired-end at 50 M reads by Illumina NovaSeq 6000 S4 PE100. After sequencing, the FASTQ files were sent to us and all downstream analysis were performed on Galaxy (Galaxy (usegalaxy.org)). First, trimmomatic tool was used to remove the adapters from the reads. Then, using the alignment tool, HISAT2, the reads were mapped to the mouse genome. In the next step, the counted reads were annotated and finally the list of differentially expressed genes (DEGs) for each treatment was obtained using the preinstalled R package called Limma.

CCC(CC)(c1ccc(OCCCCCC(=O)NO)cc1)c1ccc(OCC(O)C(C)(C)C)c(C)n1 (stereo not shown) [AM-193]
logFC Rnf145 (RNAseq, gene Rnf145, AM193-significant genes): -0.7842
logFC Rpia (RNAseq, gene Rpia, AM193-significant genes): -0.7096
logFC Samd1 (RNAseq, gene Samd1, AM193-significant genes): -0.798
logFC Selenbp1 (RNAseq, gene Selenbp1, AM193-significant genes): -1.012
logFC Sema7a (RNAseq, gene Sema7a, AM193-significant genes): -0.8174
logFC Sfxn2 (RNAseq, gene Sfxn2, AM193-significant genes): -0.9624
logFC Sigmar1 (RNAseq, gene Sigmar1, AM193-significant genes): -0.7437
logFC Sik1 (RNAseq, gene Sik1, AM193-significant genes): -0.7218
logFC Ska3 (RNAseq, gene Ska3, AM193-significant genes): -0.7116
logFC Slc2a1 (RNAseq, gene Slc2a1, AM193-significant genes): -1.04
logFC Slc37a4 (RNAseq, gene Slc37a4, AM193-significant genes): -0.9222
logFC Slc39a10 (RNAseq, gene Slc39a10, AM193-significant genes): -0.7848
logFC Snrpa1 (RNAseq, gene Snrpa1, AM193-significant genes): -1.002
logFC Snrpd1 (RNAseq, gene Snrpd1, AM193-significant genes): -0.7702
logFC Spc24 (RNAseq, gene Spc24, AM193-significant genes): -0.7364
logFC Srm (RNAseq, gene Srm, AM193-significant genes): -1.055
logFC Tarbp1 (RNAseq, gene Tarbp1, AM193-significant genes): -0.7191
logFC Tbl2 (RNAseq, gene Tbl2, AM193-significant genes): -0.8635
logFC Tet1 (RNAseq, gene Tet1, AM193-significant genes): -0.8944
logFC Tfap4 (RNAseq, gene Tfap4, AM193-significant genes): -1.016
logFC Tinagl1 (RNAseq, gene Tinagl1, AM193-significant genes): -0.9151
logFC Tk1 (RNAseq, gene Tk1, AM193-significant genes): -0.987
logFC Tonsl (RNAseq, gene Tonsl, AM193-significant genes): -0.711
logFC Tpi1 (RNAseq, gene Tpi1, AM193-significant genes): -0.895
logFC Trip13 (RNAseq, gene Trip13, AM193-significant genes): -0.8647
logFC Trmt61a (RNAseq, gene Trmt61a, AM193-significant genes): -0.7832
logFC Trpm1 (RNAseq, gene Trpm1, AM193-significant genes): -0.743
logFC Ttk (RNAseq, gene Ttk, AM193-significant genes): -0.8273
logFC Uba7 (RNAseq, gene Uba7, AM193-significant genes): -0.9636
logFC Ugdh (RNAseq, gene Ugdh, AM193-significant genes): -0.8794
logFC Ugp2 (RNAseq, gene Ugp2, AM193-significant genes): -0.7144
logFC Uhrf1 (RNAseq, gene Uhrf1, AM193-significant genes): -0.8121
logFC Xrcc3 (RNAseq, gene Xrcc3, AM193-significant genes): -0.7656
logFC Abca12 (RNaseq, B16–F10 cells, gene Abca12 (ATP-binding cassette, sub-family A (ABC1), member 12), sheet AM193-significant genes): -1.21
logFC Ak4 (RNaseq, B16–F10 cells, gene Ak4 (adenylate kinase 4), sheet AM193-significant genes): -1.909
logFC Bnip3 (RNaseq, B16–F10 cells, gene Bnip3 (BCL2/adenovirus E1B interacting protein 3), sheet AM193-significant genes): -1.2222
logFC Cck (RNaseq, B16–F10 cells, gene Cck (cholecystokinin), sheet AM193-significant genes): -1.792
logFC Cited1 (RNaseq, B16–F10 cells, gene Cited1 (Cbp/p300-interacting transactivator with Glu/Asp-rich carboxy-terminal domain 1), sheet AM193-significant genes): -1.397
logFC Dna2 (RNaseq, B16–F10 cells, gene Dna2 (DNA replication helicase/nuclease 2), sheet AM193-significant genes): -1.157
logFC Gpd1 (RNaseq, B16–F10 cells, gene Gpd1 (glycerol-3-phosphate dehydrogenase 1 (soluble)), sheet AM193-significant genes): -1.351
logFC H2bc12 (RNaseq, B16–F10 cells, gene H2bc12 (H2B clustered histone 12), sheet AM193-significant genes): -1.307
logFC H3c8 (RNaseq, B16–F10 cells, gene H3c8 (H3 clustered histone 8), sheet AM193-significant genes): -1.15
logFC Hk2 (RNaseq, B16–F10 cells, gene Hk2 (hexokinase 2), sheet AM193-significant genes): -1.284
logFC Kit (RNaseq, B16–F10 cells, gene Kit (KIT proto-oncogene receptor tyrosine kinase), sheet AM193-significant genes): -2.0666
logFC Lpar5 (RNaseq, B16–F10 cells, gene Lpar5 (lysophosphatidic acid receptor 5), sheet AM193-significant genes): -1.721
logFC Megf6 (RNaseq, B16–F10 cells, gene Megf6 (multiple EGF-like-domains 6), sheet AM193-significant genes): -1.186
logFC Mgll (RNaseq, B16–F10 cells, gene Mgll (monoglyceride lipase), sheet AM193-significant genes): -1.2265
logFC Mknk2 (RNaseq, B16–F10 cells, gene Mknk2 (MAP kinase-interacting serine/threonine kinase 2), sheet AM193-significant genes): -1.156
logFC Nr4a3 (RNaseq, B16–F10 cells, gene Nr4a3 (nuclear receptor subfamily 4, group A, member 3), sheet AM193-significant genes): -2.364
logFC Oas2 (RNaseq, B16–F10 cells, gene Oas2 (2'-5' oligoadenylate synthetase 2), sheet AM193-significant genes): -1.532
logFC Pafah1b3 (RNaseq, B16–F10 cells, gene Pafah1b3 (platelet-activating factor acetylhydrolase, isoform 1b, subunit 3), sheet AM193-significant genes): -1.354
logFC Pdk1 (RNaseq, B16–F10 cells, gene Pdk1 (pyruvate dehydrogenase kinase, isoenzyme 1), sheet AM193-significant genes): -1.253
logFC Sapcd2 (RNaseq, B16–F10 cells, gene Sapcd2 (suppressor APC domain containing 2), sheet AM193-significant genes): -1.167
logFC Slc16a3 (RNaseq, B16–F10 cells, gene Slc16a3 (solute carrier family 16 (monocarboxylic acid transporters), member 3), sheet AM193-significant genes): -1.321
logFC (gene 1700019D03Rik): 1.314
logFC (gene 4930455G09Rik): 1.641
logFC (gene Abca8b): 1.273
logFC (gene Abcd2): 4.745
logFC (gene Adamts7): 1.528
logFC (gene Adamtsl5): 1.436
logFC (gene Adssl1): 1.51
logFC (gene Afap1l2): 1.64
logFC (gene Akna): 1.375
logFC (gene Aldh1l2): 1.268
logFC (gene Ankrd23): 1.409
logFC (gene Asns): 1.391
logFC (gene Atp1b2): 1.2305
logFC (gene Atp2b4): 1.278
logFC (gene Atp8b3): 1.445
logFC (gene Bmf): 1.318
logFC (gene C1s1): 1.363
logFC (gene Cacng7): 1.328
logFC (gene Car11): 1.215
logFC (gene Cebpb): 1.421
logFC (gene Chn1): 1.21
logFC (gene Cnn2): 1.571
logFC (gene Col20a1): 1.535
logFC (gene Csdc2): 1.317
logFC (gene Cth): 1.456
logFC (gene Ctsf): 1.525
logFC (gene Cyb5r2): 1.681
logFC (gene Dagla): 1.633
logFC (gene Dbp): 1.36
logFC (gene Ddr2): 1.2413
logFC (gene Dgat1): 1.203
logFC (gene Dgka): 1.571
logFC (gene Dglucy): 1.251
logFC (gene Eef2k): 1.203
logFC (gene Efhd1): 5.014
logFC (gene Ehd3): 1.292
logFC (gene Fam83f): 1.352
logFC (gene Fam178b): 1.456
logFC (gene Fbxo2): 1.302
logFC (gene Fbxo41): 1.469
logFC (gene Fry): 1.598
logFC (gene Fstl1): 1.467
logFC (gene Gjc3): 1.602
logFC (gene Gli1): 1.6149
logFC (gene Glipr2): 1.645
logFC (gene Gm19705): 1.68
logFC (gene Gpr158): 1.296
logFC (gene Gpr162): 1.524
logFC (gene Gstm7): 1.44
logFC (gene Heg1): 1.713
logFC (gene Hid1): 1.246
logFC (gene Hoga1): 1.608
logFC (gene Hrc): 1.3608
logFC (gene Id3): 1.638
logFC (gene Inpp5e): 1.325
logFC (gene Itga8): 1.267
logFC (gene Jam2): 1.325
logFC (gene Kif9): 1.315
logFC (gene Lrrc75b): 1.346
logFC (gene Lrtm2): 4.986
logFC (gene Ltbp4): 1.39
logFC (gene Mettl27): 1.2162
logFC (gene Mmp11): 1.398
logFC (gene Mmp28): 4.741
logFC (gene Mxd4): 1.4725
logFC (gene Nccrp1): 5.249
logFC (gene Neurl3): 1.34
logFC (gene Notch1): 1.541
logFC (gene Notch3): 1.442
logFC (gene Nova2): 1.445
logFC (gene Nupr1): 1.537
logFC (gene Nwd1): 1.316
logFC (gene Pcdh1): 1.75
logFC (gene Pck2): 1.456
logFC (gene Pdlim2): 1.539
logFC (gene Phlda3): 1.237
logFC (gene Phyhd1): 1.588
logFC (gene Pierce2): 1.323
logFC (gene Plk2): 1.532
logFC (gene Prelp): 5.529
logFC (gene Prox1): 1.361
logFC (gene Ptges): 4.4154
logFC (gene Reck): 1.669
logFC (gene Rom1): 1.351
logFC (gene Scamp1): 1.346
logFC (gene Scube3): 1.291
logFC (gene Serpinb9b): 1.695
logFC (gene Shank1): 1.222
logFC (gene Slc17a7): 1.733
logFC (gene Slc25a35): 1.406
logFC (gene Slc25a42): 1.347
logFC (gene Slc43a2): 1.207
logFC (gene Sparc): 1.263
logFC (gene Spn): 1.262
logFC (gene Sync): 1.481
logFC (gene Syt7): 1.364
logFC (gene Trnp1): 1.3245
logFC (gene Vdr): 5.618
logFC (gene Wnt10a): 4.9613
logFC (gene Zfr2): 1.286

From publication PMC12517324, “Hyperagonism of a Vitamin D Receptor Agonist/Histone Deacetylase Inhibitor Hybrid Molecule” (Journal of Medicinal Chemistry, 2025)
